From ChEMBL document CHEMBL4028801, “A multifactorial approach to hepatobiliary transporter assessment enables improved therapeutic compound development” (Toxicol Sci, 2013)
Values belong to the molecule of their own block, whether it stands above or below them.

Experiments:
[1] = target: ATP-binding cassette sub-family C member 3 (Homo sapiens, UniProt O15438); experiment: Inhibition of human MRP3 overexpressed in Sf9 insect cell membrane vesicles assessed as uptake of [3H]-estradiol-17beta-D-glucuronide in presence of ATP and GSH measured after 10 mins by membrane vesicle transport assay; type: ADME, cell-based
Chain of ATP-binding cassette sub-family C member 3 (O15438 whole entry): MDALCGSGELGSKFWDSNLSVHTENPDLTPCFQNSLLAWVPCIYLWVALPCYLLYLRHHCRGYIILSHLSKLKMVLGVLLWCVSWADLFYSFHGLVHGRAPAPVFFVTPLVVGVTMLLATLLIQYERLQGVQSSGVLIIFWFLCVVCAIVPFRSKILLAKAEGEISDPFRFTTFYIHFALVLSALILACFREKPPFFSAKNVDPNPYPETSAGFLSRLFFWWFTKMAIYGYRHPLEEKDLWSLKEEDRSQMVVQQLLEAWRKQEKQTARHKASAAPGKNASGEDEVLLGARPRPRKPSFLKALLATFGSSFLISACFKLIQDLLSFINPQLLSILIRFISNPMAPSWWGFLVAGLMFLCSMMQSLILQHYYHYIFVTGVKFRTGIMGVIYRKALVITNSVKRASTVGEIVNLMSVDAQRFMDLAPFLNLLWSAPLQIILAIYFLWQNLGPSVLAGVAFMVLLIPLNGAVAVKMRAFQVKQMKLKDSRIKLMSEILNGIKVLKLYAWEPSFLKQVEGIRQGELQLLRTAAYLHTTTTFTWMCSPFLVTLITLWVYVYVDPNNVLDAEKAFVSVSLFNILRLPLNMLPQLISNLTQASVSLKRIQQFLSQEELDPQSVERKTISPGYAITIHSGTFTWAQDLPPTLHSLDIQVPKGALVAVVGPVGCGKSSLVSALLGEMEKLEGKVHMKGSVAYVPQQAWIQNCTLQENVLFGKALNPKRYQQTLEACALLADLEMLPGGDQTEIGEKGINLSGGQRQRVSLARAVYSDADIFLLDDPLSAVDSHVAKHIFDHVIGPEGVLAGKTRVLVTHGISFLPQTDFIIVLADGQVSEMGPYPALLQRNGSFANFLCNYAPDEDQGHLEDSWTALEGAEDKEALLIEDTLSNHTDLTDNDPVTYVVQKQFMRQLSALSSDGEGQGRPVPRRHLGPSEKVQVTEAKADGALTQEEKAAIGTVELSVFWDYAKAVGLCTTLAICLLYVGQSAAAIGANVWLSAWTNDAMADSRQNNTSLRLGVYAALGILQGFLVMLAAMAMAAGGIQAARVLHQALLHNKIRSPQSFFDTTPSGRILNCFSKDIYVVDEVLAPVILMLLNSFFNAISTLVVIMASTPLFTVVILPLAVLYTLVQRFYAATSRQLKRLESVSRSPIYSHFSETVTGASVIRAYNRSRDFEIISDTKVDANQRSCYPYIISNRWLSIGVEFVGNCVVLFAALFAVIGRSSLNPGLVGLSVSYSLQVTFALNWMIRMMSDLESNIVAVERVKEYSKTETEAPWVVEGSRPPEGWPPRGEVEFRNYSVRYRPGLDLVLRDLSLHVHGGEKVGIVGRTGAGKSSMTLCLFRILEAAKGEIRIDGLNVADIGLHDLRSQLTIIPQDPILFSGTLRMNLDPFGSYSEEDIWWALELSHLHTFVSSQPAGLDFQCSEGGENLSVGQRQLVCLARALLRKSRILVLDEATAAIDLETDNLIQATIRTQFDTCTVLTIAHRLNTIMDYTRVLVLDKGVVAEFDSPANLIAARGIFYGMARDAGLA

[2] = AUC in human at 1200 mg administered orally BID up to 2800 mg/day after 12 hrs; type: ADME; set-up: time < 12 hr, dose 1200 mg, route oral; settings: in vivo, po
Bile salt export pump = Bile salt export pump (Homo sapiens, UniProt O95342); experiment: Inhibition of human BSEP overexpressed in Sf9 cell membrane vesicles assessed as uptake of [3H]-taurocholate in presence of ATP measured after 15 to 20 mins by membrane vesicle transport assay; type: ADME, cell-based
Chain of Bile salt export pump (O95342 whole entry): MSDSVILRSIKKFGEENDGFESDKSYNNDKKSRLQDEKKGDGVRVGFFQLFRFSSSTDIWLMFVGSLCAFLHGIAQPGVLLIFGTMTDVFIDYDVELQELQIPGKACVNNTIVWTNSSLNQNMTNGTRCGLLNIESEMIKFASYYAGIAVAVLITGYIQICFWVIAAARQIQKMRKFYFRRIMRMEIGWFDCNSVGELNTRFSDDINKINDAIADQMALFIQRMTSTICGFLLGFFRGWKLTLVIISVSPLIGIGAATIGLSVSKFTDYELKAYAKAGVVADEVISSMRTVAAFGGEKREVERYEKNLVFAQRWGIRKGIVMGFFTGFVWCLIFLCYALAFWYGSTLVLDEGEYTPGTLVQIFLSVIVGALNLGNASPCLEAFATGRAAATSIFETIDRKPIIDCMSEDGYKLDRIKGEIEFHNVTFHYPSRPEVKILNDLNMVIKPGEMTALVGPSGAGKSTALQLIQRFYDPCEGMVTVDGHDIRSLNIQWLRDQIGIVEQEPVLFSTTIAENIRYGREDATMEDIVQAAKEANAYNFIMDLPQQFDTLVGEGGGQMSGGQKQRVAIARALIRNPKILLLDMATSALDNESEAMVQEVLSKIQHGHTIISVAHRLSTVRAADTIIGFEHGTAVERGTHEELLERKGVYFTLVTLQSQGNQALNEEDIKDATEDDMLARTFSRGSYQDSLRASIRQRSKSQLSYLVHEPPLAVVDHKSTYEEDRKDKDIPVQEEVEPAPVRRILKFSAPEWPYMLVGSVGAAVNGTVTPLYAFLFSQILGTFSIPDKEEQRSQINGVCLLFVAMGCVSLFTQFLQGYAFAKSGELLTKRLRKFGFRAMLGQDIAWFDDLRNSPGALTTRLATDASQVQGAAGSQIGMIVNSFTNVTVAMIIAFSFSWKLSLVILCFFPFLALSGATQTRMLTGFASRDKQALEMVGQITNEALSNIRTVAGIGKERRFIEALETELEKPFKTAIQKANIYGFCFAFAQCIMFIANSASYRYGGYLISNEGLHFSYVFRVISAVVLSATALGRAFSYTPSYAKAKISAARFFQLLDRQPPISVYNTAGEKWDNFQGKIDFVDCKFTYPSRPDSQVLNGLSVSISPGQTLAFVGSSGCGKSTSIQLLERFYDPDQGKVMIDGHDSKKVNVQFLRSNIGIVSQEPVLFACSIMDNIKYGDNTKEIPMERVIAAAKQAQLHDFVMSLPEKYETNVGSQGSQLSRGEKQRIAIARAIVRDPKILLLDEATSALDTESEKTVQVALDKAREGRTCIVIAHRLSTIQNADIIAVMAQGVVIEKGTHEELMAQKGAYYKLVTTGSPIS

[3] = target: ATP-binding cassette sub-family C member 2 (Homo sapiens, UniProt Q92887); experiment: Inhibition of human MRP2 overexpressed in Sf9 cell membrane vesicles assessed as uptake of [3H]-estradiol-17beta-D-glucuronide in presence of ATP and GSH measured after 20 mins by membrane vesicle transport assay
Chain of ATP-binding cassette sub-family C member 2 (Q92887 whole entry): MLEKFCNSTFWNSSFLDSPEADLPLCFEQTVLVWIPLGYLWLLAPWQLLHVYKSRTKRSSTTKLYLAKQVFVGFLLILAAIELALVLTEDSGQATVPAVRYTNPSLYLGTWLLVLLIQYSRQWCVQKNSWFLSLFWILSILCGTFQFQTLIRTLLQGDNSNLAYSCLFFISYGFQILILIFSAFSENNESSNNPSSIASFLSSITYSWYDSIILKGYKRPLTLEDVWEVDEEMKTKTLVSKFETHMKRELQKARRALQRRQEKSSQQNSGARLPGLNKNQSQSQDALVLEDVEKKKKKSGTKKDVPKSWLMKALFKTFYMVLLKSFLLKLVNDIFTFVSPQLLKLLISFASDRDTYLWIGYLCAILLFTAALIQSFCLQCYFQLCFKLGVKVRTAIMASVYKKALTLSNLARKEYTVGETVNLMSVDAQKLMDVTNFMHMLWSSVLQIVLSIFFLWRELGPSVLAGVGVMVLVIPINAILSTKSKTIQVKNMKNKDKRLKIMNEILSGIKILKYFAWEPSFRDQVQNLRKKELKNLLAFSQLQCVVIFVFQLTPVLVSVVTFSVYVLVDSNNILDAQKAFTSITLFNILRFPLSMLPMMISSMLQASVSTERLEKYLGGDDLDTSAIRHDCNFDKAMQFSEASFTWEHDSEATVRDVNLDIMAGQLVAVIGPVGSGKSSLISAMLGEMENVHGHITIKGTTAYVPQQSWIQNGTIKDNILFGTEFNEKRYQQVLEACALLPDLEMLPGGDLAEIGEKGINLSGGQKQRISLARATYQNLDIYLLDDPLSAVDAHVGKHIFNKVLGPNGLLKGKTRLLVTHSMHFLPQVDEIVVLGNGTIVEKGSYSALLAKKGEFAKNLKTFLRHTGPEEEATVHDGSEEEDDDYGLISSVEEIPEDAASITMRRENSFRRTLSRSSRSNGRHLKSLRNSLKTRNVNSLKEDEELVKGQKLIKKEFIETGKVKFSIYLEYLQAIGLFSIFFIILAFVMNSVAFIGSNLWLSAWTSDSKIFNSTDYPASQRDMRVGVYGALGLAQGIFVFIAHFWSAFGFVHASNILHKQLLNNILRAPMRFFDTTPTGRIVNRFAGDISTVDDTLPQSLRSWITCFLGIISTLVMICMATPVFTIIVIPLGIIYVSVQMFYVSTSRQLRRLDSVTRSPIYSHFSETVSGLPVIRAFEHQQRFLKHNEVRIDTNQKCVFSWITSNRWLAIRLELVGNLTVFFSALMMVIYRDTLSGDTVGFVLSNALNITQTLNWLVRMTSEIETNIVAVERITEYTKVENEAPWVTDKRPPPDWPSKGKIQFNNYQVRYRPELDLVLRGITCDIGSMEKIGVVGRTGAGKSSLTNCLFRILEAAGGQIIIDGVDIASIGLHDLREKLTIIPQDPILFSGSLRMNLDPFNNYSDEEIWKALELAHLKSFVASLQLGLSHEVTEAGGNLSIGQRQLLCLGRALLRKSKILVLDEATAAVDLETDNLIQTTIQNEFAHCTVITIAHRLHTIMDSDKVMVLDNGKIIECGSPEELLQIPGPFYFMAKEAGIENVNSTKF

[4] = Ratio of drug concentration at steady state in human at 1200 mg administered orally BID up to 2800 mg/day after 12 hrs to IC50 for human BSEP overexpressed in Sf9 insect cells; type: ADME; settings: in vivo, po
[5] = Drug concentration at steady state in human at 1200 mg administered orally BID up to 2800 mg/day after 12 hrs; type: ADME; settings: in vivo, po, read-out: Css
[6] = target: T1, ATP-binding cassette sub-family C member 4 (Homo sapiens, UniProt O15439); experiment: Inhibition of human MRP4 overexpressed in Sf9 cell membrane vesicles assessed as uptake of [3H]-estradiol-17beta-D-glucuronide in presence of ATP and GSH measured after 20 mins by membrane vesicle transport assay; type: ADME, cell-based
T1 sequence (O15439 whole entry): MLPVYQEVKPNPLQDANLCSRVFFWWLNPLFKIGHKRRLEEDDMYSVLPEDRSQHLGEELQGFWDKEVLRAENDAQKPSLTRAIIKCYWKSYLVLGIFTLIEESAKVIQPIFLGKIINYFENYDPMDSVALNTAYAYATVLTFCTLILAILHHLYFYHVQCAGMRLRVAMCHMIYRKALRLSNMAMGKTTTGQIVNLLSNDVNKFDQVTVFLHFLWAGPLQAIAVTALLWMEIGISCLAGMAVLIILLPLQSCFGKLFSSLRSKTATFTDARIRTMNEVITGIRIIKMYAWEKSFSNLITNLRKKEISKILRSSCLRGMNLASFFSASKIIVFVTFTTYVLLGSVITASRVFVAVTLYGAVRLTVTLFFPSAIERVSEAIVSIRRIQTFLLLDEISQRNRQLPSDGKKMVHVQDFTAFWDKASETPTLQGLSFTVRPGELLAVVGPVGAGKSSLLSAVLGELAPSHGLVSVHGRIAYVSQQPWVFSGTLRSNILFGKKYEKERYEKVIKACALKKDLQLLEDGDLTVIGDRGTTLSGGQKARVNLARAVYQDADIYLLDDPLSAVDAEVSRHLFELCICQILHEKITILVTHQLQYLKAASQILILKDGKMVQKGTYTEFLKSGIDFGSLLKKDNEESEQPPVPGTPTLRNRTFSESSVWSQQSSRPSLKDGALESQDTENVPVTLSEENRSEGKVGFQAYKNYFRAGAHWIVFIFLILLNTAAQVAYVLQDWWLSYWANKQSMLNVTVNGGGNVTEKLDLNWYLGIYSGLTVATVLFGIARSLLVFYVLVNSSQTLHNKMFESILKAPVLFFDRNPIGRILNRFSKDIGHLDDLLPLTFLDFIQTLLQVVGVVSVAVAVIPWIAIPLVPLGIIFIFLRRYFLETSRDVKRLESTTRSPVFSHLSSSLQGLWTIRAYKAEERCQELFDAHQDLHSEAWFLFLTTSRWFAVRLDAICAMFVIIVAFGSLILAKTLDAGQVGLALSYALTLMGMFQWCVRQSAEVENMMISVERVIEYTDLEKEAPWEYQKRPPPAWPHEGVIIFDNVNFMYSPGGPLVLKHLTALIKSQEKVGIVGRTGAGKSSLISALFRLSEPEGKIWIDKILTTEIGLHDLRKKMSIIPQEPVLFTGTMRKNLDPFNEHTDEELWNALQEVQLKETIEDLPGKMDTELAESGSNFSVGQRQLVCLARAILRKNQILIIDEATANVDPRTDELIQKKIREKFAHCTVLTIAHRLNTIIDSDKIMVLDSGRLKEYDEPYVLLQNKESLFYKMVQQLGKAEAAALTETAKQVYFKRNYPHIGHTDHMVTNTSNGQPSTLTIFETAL

[7] = AUC in human at 0.5 to 2 mg/kg, po QD after 24 hrs; type: ADME, organism-based; settings: in vivo
[8] = Ratio of drug concentration at steady state in human at 0.5 to 2 mg/kg, po QD after 24 hrs to IC50 for human BSEP overexpressed in Sf9 insect cells; type: ADME, organism-based; settings: in vivo
[9] = Drug concentration at steady state in human at 0.5 to 2 mg/kg, po QD after 24 hrs; type: ADME, organism-based; settings: in vivo, read-out: Css
[10] = Ratio of drug concentration at steady state in human at 200 mg, po Q3h measured after 3 hrs to IC50 for human BSEP overexpressed in Sf9 insect cells; type: ADME, organism-based; settings: in vivo
[11] = Ratio of drug concentration at steady state in human at 200 mg, po Q3h measured after 3 hrs to IC50 for human MRP3 overexpressed in Sf9 insect cells; type: ADME, organism-based; settings: in vivo
[12] = Drug concentration at steady state in human at 200 mg, po Q3h measured after 3 hrs; type: ADME, organism-based; settings: in vivo, read-out: Css
[13] = AUC in human at 200 mg, po Q3h measured after 3 hrs; type: ADME, organism-based; set-up: dose 200 mg, time < 3 hr, route oral; settings: in vivo
[14] = Ratio of drug concentration at steady state in human at 200 mg, po Q3h measured after 3 hrs to IC50 for human MRP4 overexpressed in Sf9 insect cells; type: ADME, organism-based; settings: in vivo
Homo sapiens = experiment: Drug concentration at steady state in human at 62.5 to 125 mg, po BID after 12 hrs; type: ADME, organism-based; settings: in vivo
[15] = Ratio of drug concentration at steady state in human at 62.5 to 125 mg, po BID after 12 hrs to IC50 for human MRP4 overexpressed in Sf9 insect cells; type: ADME, organism-based; settings: in vivo
[16] = Ratio of drug concentration at steady state in human at 62.5 to 125 mg, po BID after 12 hrs to IC50 for human MRP3 overexpressed in Sf9 insect cells; type: ADME, organism-based; settings: in vivo
[17] = Ratio of drug concentration at steady state in human at 62.5 to 125 mg, po BID after 12 hrs to IC50 for human BSEP overexpressed in Sf9 insect cells; type: ADME, organism-based; settings: in vivo
[18] = AUC in human at 62.5 to 125 mg, po BID after 12 hrs; type: ADME, organism-based; settings: in vivo
[19] = Ratio of drug concentration at steady state in human at 10 to 20 mg, po QID after 6 hrs to IC50 for human BSEP overexpressed in Sf9 insect cells; type: ADME, organism-based; settings: in vivo
[20] = AUC in human at 10 to 20 mg, po QID after 6 hrs; type: ADME, organism-based; settings: in vivo
[21] = Drug concentration at steady state in human at 10 to 20 mg, po QID after 6 hrs; type: ADME, organism-based; settings: in vivo, read-out: Css
clinical = settings: human, in vivo, po
[22] = Drug concentration at steady state in human at 200 to 1200 mg, po QD after 24 hrs; settings: in vivo

SMILES: CC1=C(/C=C/C(C)=C/C=C/C(C)=C\C(=O)O)C(C)(C)CCC1 [ISOTRETINOIN]
- AUC at 24 h [7]: 33.3 µM·h
- Ratio [8]: 0.037
- IC50 [1]: > 133 µM
- IC50 (Bile salt export pump): 37.1 µM
- IC50 [3]: > 133 µM
- IC50 [6]: > 133 µM
- concentration at 24 h [9]: 1390 nM

SMILES: COc1ccccc1Oc1c(NS(=O)(=O)c2ccc(C(C)(C)C)cc2)nc(-c2ncccn2)nc1OCCO [BOSENTAN]
- IC50 [1]: 42 µM
- Css (Homo sapiens): 1347 nM
- IC50 (Bile salt export pump): 23 µM
- IC50 [6]: 22 µM
- Ratio [15]: 0.061
- Ratio [16]: 0.032
- Ratio [17]: 0.059
- AUC at 12 h [18]: 16.2 µM·h

SMILES: COc1cc(N)c(Cl)cc1C(=O)NC1CCN(CCCOc2ccc(F)cc2)CC1OC.O (stereo not drawn) [CISAPRIDE MONOHYDRATE]
- Ratio [19]: 0.036
- IC50 [1]: > 133 µM
- IC50 (Bile salt export pump): 22 µM
- IC50 [3]: > 133 µM
- IC50 [6]: > 133 µM
- AUC at 6 h [20]: 4.78 µM·h
- concentration at 6 h [21]: 797 nM

Continued, in another order:

- IC50 [1]: > 133 µM
- AUC at 12 h [2]: 52.2 µM·h
- IC50 [3]: > 133 µM
- concentration at 12 h [5]: 4350 nM
- IC50 [6]: > 133 µM
SMILES: CC(C)CN(C[C@@H](O)[C@H](Cc1ccccc1)NC(=O)O[C@H]1CCOC1)S(=O)(=O)c1ccc(N)cc1
- IC50 (Bile salt export pump): 44.8 µM
- Ratio [4]: 0.097

- Ratio [11]: 0.05
- IC50 [1]: 35.1 µM
- IC50 [3]: > 133 µM
- concentration at 3 h [12]: 1760 nM
- AUC at 3 h [13]: 5.29 µM·h
- IC50 [6]: 6.8 µM
- Ratio [14]: 0.259
SMILES: CCN(CC)C(=O)/C(C#N)=C/c1cc(O)c(O)c([N+](=O)[O-])c1 [ENTACAPONE]
- Ratio [10]: 0.032
- IC50 (Bile salt export pump): 55.6 µM

- IC50 [1]: > 133 µM
- AUC at 24 h (clinical): 32.7 µM·h
- IC50 [3]: > 133 µM
- IC50 [6]: > 133 µM
- concentration at 24 h [22]: 1360 nM
SMILES: CCCCc1oc2ccccc2c1C(=O)c1cc(I)c(OCCN(CC)CC)c(I)c1 [AMIODARONE]
